Measured values: ChEMBL document CHEMBL4680246, “Design, synthesis and biological evaluation of novel O-carbamoyl ferulamide derivatives as multi-target-directed ligands for the treatment of Alzheimer's disease” (Eur J Med Chem, 2020)
Values after ≈ are worked out from the molar mass of the structure shown. Active and inactive are the calls of the source. The calls are words filed in the database; no cut-off is given here.

Assays:
Cholinesterase [1] = target: Cholinesterase (Equus caballus, UniProt P81908); test: Inhibition of equine serum BuChE using BTC as substrate after 15 mins by Ellman's method
Mus musculus [2] = test: Improvement in brain cholinergic activity in scopolamine-induced mouse model of amnesia assessed as change in ChAT vitality at 20 mg/kg (reference value: 28.8 U/g); assay type: functional
[3] = Toxicity in AlCl3-induced Zebrafish model of Alzheimer's disease; design: species or system Danio rerio; details: in vivo
[4] = Effect on tau protein level in mouse HT22 cells transfected with pRK5-GFP-Tau plasmid assessed as fluorescence intensity at 10 uM by fluorescence microscopy (Rvb <= 40.9); assay type: functional, HT-22
Danio rerio [5] = species: Danio rerio; test: Protection against amyloid beta (1 to 42)-induced zebrafish model of vascular injury assessed as reduction in vascular injury at […] relative to control; assay type: functional; details: dose 0.11 µg/ml
[6] = Acute toxicity in Kunming mouse assessed as lethargy at 250 to 1000 mg/kg; assay type: organism-based; details: in vivo, dose 250-1000 mg/kg
[7] = Toxicity in Zebrafish assessed as induction of yolk sac absorption delay at 6.25 ug/ml relative to control; design: species or system Danio rerio; details: in vivo, at 6.25 µg/mL
Mus musculus [8] = species: Mus musculus; test: Improvement in brain cholinergic activity in scopolamine-induced mouse model of amnesia assessed as increase in ChAT vitality; assay type: functional, organism-based
[9] = Toxicity in AlCl3-induced Zebrafish model of Alzheimer's disease assessed as mortality at 100 ug/ml relative to control; design: species or system Danio rerio; details: in vivo, at 100 µg/mL
[10] = Toxicity in Zebrafish assessed as pericardial edema at 6.25 ug/ml relative to control; design: species or system Danio rerio; details: in vivo, at 6.25 µg/mL
[11] = Cytotoxicity against mouse HT22 cells assessed as cell viability at 80 uM by MTT assay relative to control; assay type: cell-based, HT-22; details: read-out: Activity
[12] = Acute toxicity in Kunming mouse assessed as piloerection at 250 to 1000 mg/kg measured after 24 hrs; assay type: organism-based; details: in vivo, dose 250-1000 mg/kg
Danio rerio [13] = species: Danio rerio; test: Antialzheimer activity in AlCl3-induced Zebrafish model of Alzheimer's disease assessed as increase in motility distance at 1 ug/ml relative to control; assay type: functional; details: dose 1 µg/ml
[14] = Effect on APP protein level in mouse HT22 cells transfected with pEGFP-N1-APP plasmid assessed as fluorescence intensity at 20 uM by fluorescence microscopy (reference value: 33.2); assay type: functional, HT-22
[15] = Acute toxicity in Kunming mouse assessed as mortality at 50 to 1000 mg/kg; assay type: organism-based; details: in vivo, dose 50-1000 mg/kg
Cholinesterase [16] = target: T1, Cholinesterase (Homo sapiens, UniProt P06276); test: Pseudo-irreversible inhibition of human serum BuChE assessed as residual activity at 0.1 times IC50 using acetylcholine iodide as substrate measured 240 mins post dilution by Ellman's method relative to control
Danio rerio [17] = species: Danio rerio; test: Antialzheimer activity in AlCl3-induced Zebrafish model of Alzheimer's disease assessed as change in motility speed at 0.33 ug/ml (reference value: 1.08 mm/s); assay type: functional; details: dose 0.33 µg/ml
HT-22 = test: Effect on APP protein level in mouse HT22 cells transfected with pEGFP-N1-APP plasmid assessed as reduction in fluorescence intensity by fluorescence microscopy; assay type: functional, cell-based
[18] = Toxicity in AlCl3-induced Zebrafish model of Alzheimer's disease assessed as mortality at 50 ug/ml relative to control; design: species or system Danio rerio; details: in vivo, at 50 µg/mL
[19] = target: Amyloid-beta precursor protein (Homo sapiens) (UniProt P05067); test: Disaggregation of self-induced amyloid beta (1 to 42) (unknown origin) preformed fibrils at 25 uM measured after 24 hrs by thioflavin-T fluorescence assay relative to control
[20] = Toxicity in Zebrafish assessed as mortality at 6.25 ug/ml relative to control; design: species or system Danio rerio; details: in vivo, at 6.25 µg/mL
[21] = Acute toxicity in Kunming mouse assessed as decrease in autonomic activity at 250 to 1000 mg/kg; assay type: organism-based; details: in vivo, dose 250-1000 mg/kg
[22] = Toxicity in Zebrafish assessed as mortality at 100 ug/ml relative to control; design: species or system Danio rerio; details: in vivo, at 100 µg/mL
Danio rerio [23] = species: Danio rerio; test: Protection against amyloid beta (1 to 42)-induced zebrafish model of vascular injury assessed as reduction in vascular injury at 1 ug/ml relative to control; assay type: functional; details: dose 1 µg/ml
[24] = target: T2, Amine oxidase [flavin-containing] A (Homo sapiens, UniProt P21397); test: Inhibition of recombinant human MAO-A
T2 sequence (P21397 whole entry): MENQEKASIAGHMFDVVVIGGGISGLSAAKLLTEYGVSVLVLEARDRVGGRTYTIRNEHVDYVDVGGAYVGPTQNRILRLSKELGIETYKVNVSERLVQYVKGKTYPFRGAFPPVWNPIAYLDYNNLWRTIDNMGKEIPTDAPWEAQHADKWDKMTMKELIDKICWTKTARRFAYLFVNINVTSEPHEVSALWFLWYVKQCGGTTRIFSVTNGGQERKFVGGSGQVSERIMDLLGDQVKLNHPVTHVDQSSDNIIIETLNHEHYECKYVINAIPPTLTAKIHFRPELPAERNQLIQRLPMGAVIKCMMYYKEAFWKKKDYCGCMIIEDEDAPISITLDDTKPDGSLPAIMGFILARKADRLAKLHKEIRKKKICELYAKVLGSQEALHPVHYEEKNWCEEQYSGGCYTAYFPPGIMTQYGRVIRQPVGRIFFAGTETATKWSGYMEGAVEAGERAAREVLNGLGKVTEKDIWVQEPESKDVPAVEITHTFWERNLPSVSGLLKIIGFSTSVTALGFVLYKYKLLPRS

[25] = target: Amyloid-beta precursor protein (Homo sapiens) (UniProt P05067); test: Disaggregation of self-induced amyloid beta (1 to 42) (unknown origin) preformed fibrils at 25 uM measured after 24 hrs by transmission electron microscopic analysis
[26] = Cytotoxicity against mouse HT22 cells assessed as cell viability at 20 uM by MTT assay relative to control; assay type: cell-based, HT-22; details: read-out: Activity
Mus musculus [27] = test: Improvement in brain cholinergic activity in scopolamine-induced mouse model of amnesia assessed as reduction in AChE vitality at 5 to 10 mg/kg; assay type: functional, organism-based; details: dose 5-10 mg/kg
[28] = Acute toxicity in Kunming mouse assessed as hypokinesia at 250 to 1000 mg/kg; assay type: organism-based; details: in vivo, dose 250-1000 mg/kg
[29] = Permeability of compound by PAMPA-BBB assay; assay type: ADME; details: read-out: permeability
Danio rerio [30] = species: Danio rerio; test: Protection against amyloid beta (1 to 42)-induced zebrafish model of vascular injury assessed as reduction in injury rate; assay type: functional, organism-based
[31] = Toxicity in Zebrafish assessed as change in body shape at 6.25 ug/ml relative to control; design: species or system Danio rerio; details: in vivo, at 6.25 µg/mL
[32] = Toxicity in AlCl3-induced Zebrafish model of Alzheimer's disease assessed as mortality at 25 ug/ml relative to control; design: species or system Danio rerio; details: in vivo, at 25 µg/mL
[33] = Effect on tau protein level in mouse HT22 cells transfected with pRK5-GFP-Tau plasmid assessed as fluorescence intensity at 2.5 uM by fluorescence microscopy (Rvb <= 40.9); assay type: functional, HT-22
[34] = Toxicity in Zebrafish; design: species or system Danio rerio; details: in vivo
Cholinesterase [35] = target: T1, Cholinesterase; test: Inhibition of human serum BuChE assessed as residual activity at IC50 using acetylcholine iodide as substrate measured after dilution by Ellman's method relative to control

T1 sequence (P06276 whole entry): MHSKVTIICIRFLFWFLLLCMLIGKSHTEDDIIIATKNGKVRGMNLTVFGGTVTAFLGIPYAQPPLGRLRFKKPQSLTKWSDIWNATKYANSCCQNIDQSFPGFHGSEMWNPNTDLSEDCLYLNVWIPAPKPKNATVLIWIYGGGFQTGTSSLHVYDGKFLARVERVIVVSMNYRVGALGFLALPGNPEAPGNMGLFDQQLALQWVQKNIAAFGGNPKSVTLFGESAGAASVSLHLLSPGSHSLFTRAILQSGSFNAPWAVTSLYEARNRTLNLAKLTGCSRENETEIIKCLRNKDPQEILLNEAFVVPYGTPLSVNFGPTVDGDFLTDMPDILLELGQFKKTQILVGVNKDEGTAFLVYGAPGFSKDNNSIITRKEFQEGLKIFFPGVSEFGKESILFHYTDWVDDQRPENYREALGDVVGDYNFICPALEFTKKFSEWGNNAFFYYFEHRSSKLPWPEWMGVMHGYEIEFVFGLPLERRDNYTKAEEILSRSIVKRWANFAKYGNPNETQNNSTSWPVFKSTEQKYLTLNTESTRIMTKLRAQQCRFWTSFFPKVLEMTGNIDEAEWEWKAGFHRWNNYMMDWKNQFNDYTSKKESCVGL
Chain of Amyloid-beta precursor protein (Homo sapiens) (P05067 whole entry): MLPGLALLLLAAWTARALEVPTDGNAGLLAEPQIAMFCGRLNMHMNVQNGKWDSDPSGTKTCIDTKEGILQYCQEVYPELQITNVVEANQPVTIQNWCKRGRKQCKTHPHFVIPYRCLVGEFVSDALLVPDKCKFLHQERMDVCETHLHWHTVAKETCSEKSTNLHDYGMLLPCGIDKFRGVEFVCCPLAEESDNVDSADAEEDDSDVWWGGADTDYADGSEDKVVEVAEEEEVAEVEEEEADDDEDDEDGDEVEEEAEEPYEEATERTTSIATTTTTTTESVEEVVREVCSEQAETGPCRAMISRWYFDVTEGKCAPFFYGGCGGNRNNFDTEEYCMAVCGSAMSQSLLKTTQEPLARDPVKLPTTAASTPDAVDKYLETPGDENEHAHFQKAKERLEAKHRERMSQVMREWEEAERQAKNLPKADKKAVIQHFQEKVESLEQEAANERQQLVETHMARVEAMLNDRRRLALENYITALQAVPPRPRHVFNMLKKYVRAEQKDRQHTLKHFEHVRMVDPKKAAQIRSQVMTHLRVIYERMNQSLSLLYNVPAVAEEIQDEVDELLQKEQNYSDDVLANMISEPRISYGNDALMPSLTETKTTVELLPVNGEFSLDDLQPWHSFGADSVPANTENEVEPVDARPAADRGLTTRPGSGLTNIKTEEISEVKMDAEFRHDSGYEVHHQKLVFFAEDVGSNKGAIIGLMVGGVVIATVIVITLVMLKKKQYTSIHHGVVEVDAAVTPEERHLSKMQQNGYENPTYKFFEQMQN
Chain of Cholinesterase (Equus caballus, UniProt P81908) (P81908 whole entry): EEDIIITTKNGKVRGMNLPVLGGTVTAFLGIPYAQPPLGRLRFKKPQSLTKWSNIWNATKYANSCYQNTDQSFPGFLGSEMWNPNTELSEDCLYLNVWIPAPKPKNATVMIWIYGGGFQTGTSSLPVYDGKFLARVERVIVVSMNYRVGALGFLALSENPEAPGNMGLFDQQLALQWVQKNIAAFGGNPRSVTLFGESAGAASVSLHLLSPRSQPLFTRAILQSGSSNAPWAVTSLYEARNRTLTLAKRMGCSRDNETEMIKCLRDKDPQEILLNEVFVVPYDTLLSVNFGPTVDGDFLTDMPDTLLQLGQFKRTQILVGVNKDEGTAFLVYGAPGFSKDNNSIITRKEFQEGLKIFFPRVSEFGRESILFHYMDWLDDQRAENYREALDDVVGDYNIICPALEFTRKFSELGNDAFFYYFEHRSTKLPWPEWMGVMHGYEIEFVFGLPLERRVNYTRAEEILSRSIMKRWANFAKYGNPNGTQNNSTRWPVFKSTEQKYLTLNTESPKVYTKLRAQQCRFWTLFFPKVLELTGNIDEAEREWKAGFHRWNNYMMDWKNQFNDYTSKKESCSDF

`CCN(C)C(=O)Oc1ccc(/C=C/C(=O)N2CCc3ccccc3C2)cc1OC` showed an IC50 (Cholinesterase [1]) of 0.92 µM, an Activity (Mus musculus [2]) of 54.1 U/g and an MTD [3] of 1 µg/mL. The Flu intensity [4] was 33.3, the Efficacy (Danio rerio [5]) was -9.1% and the Activity [6] was “Toxic”. For the same compound, the Activity [7] was 100%, the Activity (Mus musculus [8]) was “Dose-dependent effect” and the mortality at 100 ug/ml [9] was 100%. The Activity [10] was 46.7%, the viability at 80 µM [11] was 8.4% and the Activity [12] was “Non-Toxic”. The Efficacy (Danio rerio [13]) was 85.9%, the Flu intensity [14] was 14.9 and the Activity [15] was “Non-Toxic”. The Activity (Cholinesterase [16]) was 66.2%, the Activity (Danio rerio [17]) was 2.06 millimeter/sec and the Activity (HT-22) was “Dose-dependent effect”. The mortality at 50 ug/ml [18] was 100%, the Activity [19] was 43.3% and the mortality at 6.25 ug/ml [20] was 6.7%. For the same compound, the Activity [21] was “Toxic”, the mortality at 100 ug/ml [22] was 100% and the Efficacy (Danio rerio [23]) was 27.3%. The IC50 [24] was 15.9 µM, the Activity [25] was “Active” and the viability at 20 µM [26] was 79.8%. For the same compound, the Activity (Mus musculus [27]) was “Active”, the Activity [28] was “Toxic” and the Papp [29] was 21.4 ×10⁻⁶ cm/s. The Activity (Danio rerio [30]) was “Dose-dependent effect”, the Activity [31] was 53.3% and the mortality at 25 ug/ml [32] was 100%. The Flu intensity [33] was 32.6, the LC10 [34] was 6.25 µg/mL (≈ 15.8 µM) and the MNTC ([34]; read-out: MNCC) was 3.12 µg/mL. It also gave an Activity (Cholinesterase [35]) of 48.2%.
